According to patent US8287862B2, “Multidrug resistance-associated polypeptide” (Millennium Pharmaceuticals, Inc., priority 1997, dated 2012):

Experiments:
[1] = test system: MCF-7 human breast adenocarcinoma cell line; details: adriamycin-selected MDR MCF-7 vs parental MCF-7; cited from earlier work
MRP-β host cells = details: versus source or control cells; 16-24 hours in culture
Procedure: To establish this survival advantage, triplicate cultures of MRP-β host cells, control cells and source cells (e.g., MCF-7 human breast adenocarcinoma cells) are generated in 24-well cell culture plates. Once the cultures have attained at least 80% confluency, lethal or sub-lethal amounts of a cytotoxin (e.g., adriamycin, bisantrene) are added to each well. After a sufficient period of time for cytotoxic effects to be manifested (e.g., 16-24 hours in culture), culture media comprising the cytotoxic drug are aspirated or otherwise removed, and cells are stained with a vital dye such as Trypan blue. Which commercially available vital dye is used in this procedure is a matter of choice; thus, sulforodoamine B (see Powell et al. (1990), U.S. Pat. No. 5,550,149) could be used in lieu of Trypan blue. The number of cells that remain viable (e.g., capable of excluding the dye) are counted using a hemocytometer, flow cytometer or other appropriate device.

SMILES	resistance of MDR derivative cell line relative to parental (wild-type) MCF-7 [1] [fold]	survival of MRP-β expressing host cells on exposure to cytotoxin (MRP-β host cells)
COc1cccc2c1C(=O)c1c(O)c3c(c(O)c1C2=O)C[C@@](O)(C(=O)CO)C[C@@H]3O[C@H]1C[C@H](N)[C@H](O)[C@H](C)O1 [adriamycin]	192	
C(=N\NC1=NCCN1)/c1c2ccccc2c(/C=N/NC2=NCCN2)c2ccccc12 [bisantrene]		surviving exposure to otherwise lethal amounts
